# Measured values reported in patent publication US4159384A, “Phenenyltris (carbonylimino)multi-anionic substituted triphenyl acids and salts” (American Cyanamid Company, priority 1978, dated 1979).
# Counter-ions that a name gives are not always drawn.
# Tested on: shunt pathway
# Assay: Test, Code 036 (C-Shunt inhibitor): lysis of fragile human erythrocytes in autologous serum, cobra venom factor
# Assay type: biochemical
# Settings: in vitro, appropriate dilutions of the test compound
# Text: An active inhibitor protects C2 from C1 and C4; (ii) Test, Code 035 (C3-C9 inhibitor)--This test determines the ability of the late components of human complement (C3-C9) to lyse EAC 142 in the presence of appropriate dilutions of the test compound. An active inhibitor protects EAC 142 from lysis by human C3-C9; (iii) Test, Code 036 (C-Shunt inhibitor)--In this test human erythrocytes rendered fragile are lysed in autologous serum via the shunt pathway activated by cobra venom factor in the presence of appropriate dilutions of the test compound. Inhibition of the shunt pathway results in failure of lysis; (iv) Forssman Vasculitis Test--Here, the well known complement dependent lesion, Forssman vasculitis, is produced in guinea pigs by intradermal injection of rabbit anti-Forssman antiserum. […]
compound,measurement,value
"O=C(Nc1cc(C(=O)O)c(O)c(S(=O)(=O)O)c1)c1cc(C(=O)Nc2cc(C(=O)O)c(O)c(S(=O)(=O)O)c2)cc(C(=O)Nc2cc(C(=O)O)c(O)c(S(=O)(=O)O)c2)c1 [5,5',5""-[s-Phenenyltris(carbonylimino)]tri-3-sulfo salicylic acid trisodium salt]",Shunt Inhibition 036 Wells,+1 Wells
